The record followed here is PubChem BioAssay (NCI).

Structures are written as SMILES. Where “and” joins values, the source holds several entries; their conditions need not be identical. Equal entries are not always repeated.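 Tested at 5 concentrations; 48 h exposure; 96-well plates; endpoints linearly interpolated, else capped at highest concentration. The concentration for 50% growth inhibition is given as GI50. TGI marks complete inhibition of growth.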 Where only a bound is given, the exact number is not on record here.

Holding throughout (assay): NCI anticancer screen, dose series, 48 h
Assay [1] concerns DMS 273 small cell lung.
In assay [2] the test system is DLD-1 colon.
Assay [3] deals with XF 498 CNS.
The subject of assay [4] is RXF-631 renal.
Assay [5] deals with T-47D breast.
Assay [6] deals with PC-3 prostate.
Assay [7] relates to DU-145 prostate.
For assay [8], the system named is NCI/ADR-RES ovarian.
Assay [9] deals with MDA-N.

As to `CC1(C)CCOC(Sc2ccccc2)C1` (stereo not given), the TGI in [1], in assay [2] and in [3] was over 100 µM in each case.

As for `CC1Nc2ccccc2NC1C=C(C#N)C#N` (stereo not given), the TGI in assay [1] came out at 25.1 µM; in assay [2] it was 30.2 µM; in assay [4], 24.4 µM; in [3], 31.1 µM.

In the case of `CN1C=C(C(N)=O)Cc2ccsc21`, the TGI in assay [1] and in assay [2] was over 100 µM each time.

For the compound `CC[C@@]1(O)C(=O)OCc2c1cc1n(c2=O)Cc2cc3c(N)c(OC)ccc3nc2-1`, the GI50 is under 0.0166 µM in [1], 1 µM in assay [2], 0.176 µM in [4] and 0.389 µM in [3]. Besides, the TGI was 0.36 µM in [1], over 100 µM in assay [2], 2.74 µM in [4] and 4.14 µM in [3].

Consider `NNC(=O)C(=O)N/N=C1\CCCC1C(=O)CCC(=O)Nc1cccc(Cl)c1` (stereo not given), for which the TGI in assay [2], in assay [4] and in [3] was over 100 µM throughout.

Turning to `O=C1C[C@@H]2[C@@H](C=CC23CCCC3)N1O`, the TGI in assay [1] and in assay [2] was over 100 µM throughout.

Consider `Nc1ncnc2c1ncn2C1(CO)OC(CO)C(O)C1O` (stereo not given), for which the TGI in assay [1], in assay [2], in assay [4] and in assay [3] was over 100 µM in each case.

As for `O=C1CC2=CCCC2O1` (stereo not given), the TGI in [1], in assay [2] and in assay [3] was over 100 µM in each case.

For `Cc1ccc(C)c(NC(=O)C(=O)C(C2C(C)CC(=O)C2CC(=O)O)[N+](=O)[O-])c1` (stereo not given), the TGI in assay [2], in assay [4] and in [3] was over 100 µM in each case.

Consider `O=C1C=C(c2ccccc2)NC1(c1ccccc1)c1cc(-c2ccccc2)[nH]c1-c1ccccc1` (stereo not given), for which the TGI in [1], in assay [2] and in assay [4] was over 100 µM each time.

As to `CN(COC(=O)C(C)(C)C)c1nc(N(C)COC(=O)C(C)(C)C)nc(N(C)COC(=O)C(C)(C)C)n1`, the TGI in assay [5] is over 100 µM; in assay [6], over 100 µM; in assay [7], over 100 µM; in [8], over 100 µM; in assay [9] it was 80.3 µM.

In the case of `CC(=O)CC(=O)Nc1ccc(OS(N)(=O)=O)cc1`, the TGI in assay [1], in assay [2], in assay [4] and in [3] was over 100 µM throughout.

With `O=C1c2ccccc2C(=O)N1CCN(CCN1C(=O)c2ccccc2C1=O)Cc1ccccc1`, the TGI in [1], in assay [2] and in assay [3] was over 100 µM in each case.

`C=CCN=C1NC(=O)C(CC(=O)Nc2ccc([N+](=O)[O-])cc2[N+](=O)[O-])S1` (stereo not given): the TGI in assay [1], in assay [2], in assay [4] and in [3] was over 100 µM in each case.

With `CCN(CC)CCNc1ccc2nc(C)n3c4ccc(OC)cc4c(=O)c1c23`, the TGI in assay [5] is 33.8 µM; in assay [6] it was 17.5 µM; in assay [1], 11.5 µM; in assay [7], 13.3 µM; in assay [8], 15.1 µM; in assay [2], 10.9 µM. Further, the TGI in assay [9] amounted to 17.2 µM.

On to `O=[N+]([O-])C(=C1c2ccccc2-c2ccccc21)[N+](=O)[O-]`, for which the TGI in assay [1] was over 10 µM.

In the case of `O=S(=O)([O-])c1ccc(C=Nc2ccccc2)c([O-])c1.O=S(=O)([O-])c1ccc(C=Nc2ccccc2)c([O-])c1.[Co+2]`, the GI50 in [2] was 5.18 µM; in [3], 20.6 µM. Besides, the TGI in assay [2] and in [3] was over 100 µM in each case.

Take `COC(=O)N1C=CC2=C(C)C3Nc4ccccc4C3C(C)=C2C1` (stereo not given): the TGI in assay [1] was 11.7 µM; in [2], 19.8 µM; in assay [3] it was 7.87 µM.

As for `CCOC(=O)N1C/C(=C\c2ccc(N(C)C)cc2)C(=O)/C(=C/c2ccc(N(C)C)cc2)C1`, the TGI in assay [1], in [2] and in assay [4] was over 100 µM each time.

With `Cc1ncc2c(n1)CCC1=C2OS(=O)(=O)CC1N(C)C` (stereo not given), the TGI in assay [5], in assay [6], in assay [7] and in assay [9] was over 100 µM in each case.

With `COc1ccc(-c2cc(-c3ccco3)c(C#N)c(=O)n2C2OC(COC(C)=O)C(OC(C)=O)C(OC(C)=O)C2OC(C)=O)cc1` (stereo not given), the TGI in assay [1] was over 100 µM; in assay [2], over 100 µM; in [4], > 100 µM and 46.5 µM. For the same compound, in assay [4], the GI50 is > 100 µM and 14.3 µM.

In the case of `COc1cc2c(c(OC)c1OC)[C@@H]1CCCCC[C@@H]1CCC2=O`, the TGI in [1] was over 100 µM; in assay [2], over 61 µM; in assay [4] it was over 100 µM; in [3], over 100 µM.

`COC(=O)C(C(=O)C(=O)Nc1nc2ccc(OC)cc2s1)c1cnc2ccccc2n1` (stereo not given): the TGI in assay [2] and in assay [3] was over 100 µM in each case.

Consider `COc1cc(Br)c(/C=N/N=C(\N)NO)cc1OC`, for which the TGI in assay [1] was over 100 µM; in [2], over 100 µM; in assay [4], over 100 µM; in assay [3] it was 69.6 µM.

`COc1cc(C(C)c2cc3c(cc2OCCCCCOc2cc4c(cc2C(C)c2cc(OC)c(OC)c(OC)c2)OCO4)OCO3)cc(OC)c1OC` (stereo not given): the TGI in [1] and in assay [2] was over 100 µM each time.

`O=S(=O)(c1ccccc1)C1(C2(S(=O)(=O)c3ccccc3)CCN=N2)CCN=N1` (stereo not given): the TGI in assay [1], in assay [2] and in assay [3] was over 100 µM each time.

For the compound `CC(C)C[C@H](NC(=O)[C@@H](N)Cc1cccc2ccccc12)B(O)O`, the GI50 in assay [5] was 0.432 µM; in assay [6], 1.12 µM; in assay [7] it was 0.0736 µM; in assay [8] it was 1.39 µM and 0.183 µM; in [9], under 0.01 µM. In addition, the TGI in assay [7] was 6.14 µM and 1.15 µM.

Take `CN(C)c1ccc(-c2nc(N)nc3c2CCCC3)cc1`: the TGI is over 100 µM in [1], over 100 µM in [2] and 60.5 µM in [3].

Turning to `Cc1nsc2cc(Cl)n(C)c(=O)c12`, the TGI in assay [1], in assay [2], in assay [4] and in [3] was over 100 µM in each case.

`Cc1ccc(S(=O)(=O)NC(=O)Nc2ncn[nH]2)cc1`: the TGI in assay [5], in [6], in [7], in assay [8] and in assay [9] was over 100 µM each time.
